Series [1] in a line: Cytotoxicity against human HT-29 cells by Cell Titer Glo assay. The series is classed as toxicity, cell-based.
In another series the test system is HT-29. As to the kind of experiment: Anti-necroptic activity against human HT-29 cells assessed as cell viability pretreated with compound followed by TNF-alpha/Smac mimetic/Z-VAD-FMK stimulation for 16 hrs by Cell Titer Glo assay. The class given is functional, cell-based. (ATP-based viability assays read luminescence as a measure of living cells.)

SMILES strings stand for the structures.

The term CC50 denotes the concentration giving 50% cytotoxicity. Broadly, the EC50 is the midpoint of the concentration-response curve.

Regarding `Cc1cccc(C)c1-c1ccc2c(c1)N(C)C(=O)[C@@H](NC(=O)c1n[nH]c(Cc3ccccc3)n1)CO2`, the CC50 in series [1] is more than 100000 nM. Moreover, the EC50 in the series with HT-29 was more than 100 nM.

Consider `CN1C(=O)[C@@H](NC(=O)c2n[nH]c(Cc3ccccc3)n2)COc2ccc(-c3ccccc3C#N)cc21`, for which, in series [1], the CC50 was more than 100000 nM. The EC50 with HT-29 amounted to 3 nM.

`COc1cccc(-c2ccc3c(c2)N(C)C(=O)[C@@H](NC(=O)c2n[nH]c(Cc4ccccc4)n2)CO3)c1` displayed a CC50 in series [1] of more than 100000 nM. For the same compound, the EC50 with HT-29 is 3 nM.

`COc1ccccc1-c1ccc2c(c1)N(C)C(=O)[C@@H](NC(=O)c1n[nH]c(Cc3ccccc3)n1)CO2` showed a CC50 in series [1] of more than 100000 nM. Also, the concentration giving a half-maximal response (EC50) in the series with HT-29 amounted to 10 nM.

With `Cc1cccc(-c2ccc3c(c2)N(C)C(=O)[C@@H](NC(=O)c2n[nH]c(Cc4ccccc4)n2)CO3)c1`, in series [1], the CC50 is more than 100000 nM. Also, in the series on HT-29, the EC50 was 14.1 nM.

In series [1], `CN1C(=O)[C@@H](NC(=O)c2n[nH]c(Cc3ccccc3)n2)COc2ccc(-c3cccc(O)c3)cc21` showed a CC50 of more than 100000 nM. Further, the EC50 with HT-29 was 11.7 nM.

`CN1C(=O)[C@@H](NC(=O)c2n[nH]c(Cc3ccccc3)n2)COc2ccc(-c3ccccc3-c3ccccc3)cc21` yielded a CC50 in series [1] of more than 100000 nM. Also, in the series on HT-29, the EC50 was more than 100 nM.

Turning to `CN1C(=O)[C@@H](NC(=O)c2n[nH]c(Cc3ccccc3)n2)COc2ccc(-c3ccoc3)cc21`, in series [1], the half-maximal cytotoxic concentration (CC50) was more than 100000 nM. For the same compound, in the series with HT-29, the EC50 turned out to be 3.4 nM.

In series [1], `CN1C(=O)[C@@H](NC(=O)c2n[nH]c(Cc3ccccc3)n2)COc2ccc(-c3ccc(O)cc3)cc21` came in with a 50% cytotoxic concentration (CC50) of more than 100000 nM. The EC50 in the series with HT-29 came to 29.9 nM.

`CN1C(=O)[C@@H](NC(=O)c2n[nH]c(Cc3ccccc3)n2)COc2ccc(-c3ccncc3)cc21` had a CC50 in series [1] of more than 100000 nM. The EC50 in the series on HT-29 turned out to be 3.3 nM.

`CN1C(=O)[C@@H](NC(=O)c2n[nH]c(Cc3ccccc3)n2)COc2ccc(-c3ccccc3F)cc21`: in series [1], the CC50 is more than 100000 nM. The EC50 in the series with HT-29 was 7.6 nM.

Turning to `COc1ccc(-c2ccc3c(c2)N(C)C(=O)[C@@H](NC(=O)c2n[nH]c(Cc4ccccc4)n2)CO3)cc1`, the CC50 in series [1] was more than 100000 nM. In addition, in the series with HT-29, the EC50 amounted to 3.5 nM.

In series [1], `CN1C(=O)[C@@H](NC(=O)c2n[nH]c(Cc3ccccc3)n2)COc2ccc(-c3cccc(C#N)c3)cc21` registered a CC50 of more than 100000 nM. The EC50 with HT-29 is 8.3 nM.

In the case of `CN1C(=O)[C@@H](NC(=O)c2n[nH]c(Cc3ccccc3)n2)COc2ccc(-c3cccc(Cl)c3)cc21`, the CC50 in series [1] is more than 100000 nM. Besides, the EC50 in the series on HT-29 came out at 56.8 nM.

Regarding `CN1C(=O)[C@@H](NC(=O)c2n[nH]c(Cc3ccccc3)n2)COc2ccc(-c3ccccc3O)cc21`, the CC50 in series [1] is more than 100000 nM. The EC50 with HT-29 is 60 nM.

In series [1], `CN1C(=O)[C@@H](NC(=O)c2n[nH]c(Cc3ccccc3)n2)COc2ccc(-c3cccc(-c4ccccc4)c3)cc21` returned a CC50 of more than 100000 nM. The EC50 in the series on HT-29 is 27.3 nM.

Compound `CN1C(=O)[C@@H](NC(=O)c2n[nH]c(Cc3ccccc3)n2)COc2ccc(-c3cncnc3)cc21` returned a CC50 in series [1] of more than 100000 nM. In addition, the EC50 in the series on HT-29 came out at 5.8 nM.

Regarding `CN1C(=O)[C@@H](NC(=O)c2n[nH]c(Cc3ccccc3)n2)COc2ccc(-c3cccc(F)c3)cc21`, the CC50 in series [1] is more than 100000 nM. The EC50 in the series on HT-29 stood at 8.8 nM.

The compound `CN1C(=O)[C@@H](NC(=O)c2n[nH]c(Cc3ccccc3)n2)COc2ccc(-c3ccc(-c4ccccc4)cc3)cc21` yielded a CC50 in series [1] of more than 100000 nM. Also, in the series on HT-29, the EC50 was found to be 32.9 nM.

Compound `CN1C(=O)[C@@H](NC(=O)c2n[nH]c(Cc3ccccc3)n2)COc2ccc(-c3ccc(F)cc3)cc21` came in with a CC50 in series [1] of more than 100000 nM. Also, the EC50 in the series on HT-29 was determined as 9.8 nM.

`CN1C(=O)[C@@H](NC(=O)c2n[nH]c(Cc3ccccc3)n2)COc2ccc(-c3ccccc3Cl)cc21` returned a CC50 in series [1] of more than 100000 nM. Further, in the series with HT-29, the EC50 turned out to be 20.3 nM.

Consider `Cc1ccccc1-c1ccc2c(c1)N(C)C(=O)[C@@H](NC(=O)c1n[nH]c(Cc3ccccc3)n1)CO2`, for which, in series [1], the half-maximal cytotoxic concentration (CC50) was more than 100000 nM. Further, the EC50 in the series with HT-29 was 82.7 nM.

In series [1], `Cc1ccc(-c2ccc3c(c2)N(C)C(=O)[C@@H](NC(=O)c2n[nH]c(Cc4ccccc4)n2)CO3)cc1` returned a CC50 of more than 100000 nM. In the series on HT-29, the EC50 was 10.9 nM.

On to `CN1C(=O)[C@@H](NC(=O)c2n[nH]c(Cc3ccccc3)n2)COc2ccc(-c3ccccc3)cc21`, for which, in series [1], the CC50 is more than 100000 nM. Moreover, the EC50 in the series on HT-29 was 8.3 nM.

As to `CN1C(=O)[C@@H](NC(=O)c2n[nH]c(Cc3ccccc3)n2)COc2ccc(-c3ccc(Cl)cc3)cc21`, the CC50 in series [1] was more than 100000 nM. Besides, in the series on HT-29, the EC50 is 12.5 nM.

As for `CN1C(=O)[C@@H](NC(=O)c2n[nH]c(Cc3ccccc3)n2)COc2ccc(-c3ccco3)cc21`, the half-maximal cytotoxic concentration (CC50) in series [1] is more than 100000 nM. Moreover, the EC50 with HT-29 is 3.8 nM.

The record behind these values is ChEMBL document CHEMBL5523692, “Discovery of novel biaryl benzoxazepinones as dual-mode receptor-interacting protein kinase-1 (RIPK1) inhibitors” (Bioorg Med Chem, 2024).
